Results reported in US11073509B2, “Assays and methods for determining the responsiveness of an individual subject to a therapeutic agent” (Celcuity Inc., priority 2013, dated 2021).
Read-outs that look alike come from different tables or passages of the source.

Key:
[1] = system: patient breast cancer cell sample; assay: CELx Pathway Shutdown single drug test (Example 4), impedance biosensor CReMS; format: cell-based, human; conditions: one patient breast cancer cell sample expected to be a responder
Procedure: The physiologic change of the cells and drugs tested was measured with an impedance biosensor CReMS and the summary output from the CReMS is recorded in FIG. 4.
Cells: Cells from Patients B1, B2, B3, B4, B5, B6, B7, C1, C2, L1, and L2 were utilized and handled in the same manner as described in Example 1.
In those experiments involving a combination of drugs, the procedures described in Example 3 were utilized. The list of patient cells and the drug tested with the cells is characterized in FIG. 4.

[2] = system: Patient C2 colon cancer cells; assay: CELx Combination test, impedance biosensor CReMS; format: cell-based, human; conditions: Patient C2 cells (printed Patient 2), single drug
Procedure: Cells: Colon cancer cells from Patients C1 and C2 were utilized and handled in the same manner as described in Example 1.
Procedure: Between 6,000-12,000 cells in each well were seeded into the impedance microplate containing 120 uL settling media with serum. The solution was replaced with media containing no serum to synchronize the cells with respect to physiologic state. […] The CReMS recording of physiologic change was maintained continuously from when the cells were first seeded on the microplate through complete cellular response, which was between 48-72 hours. The test was performed at 37° C., 5% CO2 and at 75% relative humidity.

[3] = cited from earlier work
[4] = system: Patient B4 cells (HER2 overexpressing breast cancer); assay: CELx Pathway Shutdown test, impedance biosensor CReMS, EGF stimulation; format: cell-based, human
Source text: (§1) CReM and microplate: A 4″×6″, 96-well impedance microplate was placed into a Roche Applied Science (Indianapolis, Ind.) xCELLigence SP impedance biosensor designed to maintain constant voltage while measuring simultaneously the impedance of every well. The change in impedance for a particular well is proportional to the number of cells and type of attachment the cells have with the impedance microplate. Changes in impedance indicate a response to perturbation of these small cell populations.
(§2) Cells: Cells from Patient B1 and B4 were utilized. […] Prior to addition to the impedance microplate, the cells were removed from their growth container with versene, counted, and re-suspended in media without serum or other growth factors.
(§3) Buffers and reagents: Standard media, serum, antibiotics (e.g. penicillin, streptomycin), and other buffers were purchased and used as delivered from ATCC (Manassas, Va., USA) or Life Technologies (Grand Island, N.Y.). Additional growth factor (mature human EGF ca6KDa) was purchased from R&D Systems (Minneapolis, Minn.) and prepared in buffered cell media without growth factors or serum.
(§4) Procedure: Between 6,000-12,000 cells in each well were seeded onto the impedance microplate containing 120 uL standard media with serum. The solution was replaced with media containing no serum to synchronize the cells with respect to physiologic state and pathway stimulation. Twenty microliters of drugs were added to the no-serum media two hours in advance of pathway stimulation.

[5] = system: Patient B1 cells (HER2 overexpressing breast cancer); assay: as above; format: cell-based, human
Source text: as §1, §2, §3, §4

[6] = system: Patient B2 breast cancer cells; assay: CELx Anti-Proliferative test, impedance biosensor CReMS; format: cell-based, human
Procedure: (§5) The physiologic change of the B1 and B2 cells during the test was measured with an impedance biosensor CReMS and the output from the CReMS is recorded in FIGS. 2A and 2B. The comparison of the CELx test results and the third party clinical reference is recorded in FIG. 2C.
(§6) CReMS, microplate, reagents, and buffers: The CReMS, microplate, reagents, and buffers used in Example 1 are the same as those employed in Example 2, except for the therapeutic agent tested. […] Paclitaxel was purchased from Selleck Chemicals (TX, USA).
(§7) Cells: Breast Cancer cells from Patients B1 and B2 were utilized and handled in the same manner as described in Example 1.
(§8) Procedure: Between 6,000-12,000 cells in each well were seeded onto the impedance microplate containing 120 uL settling media with serum. […] The CReMS recording of physiologic change was maintained continuously from when the cells were first seeded on the microplate through complete cellular response, which was between 48-72 hours. The test was performed at 37° C., 5% CO2 and at 75% relative humidity.

[7] = system: Patient B1 breast cancer cells; assay: as above; format: cell-based, human
Procedure: as §5, §6, §7, §8

SMILES: COc1cc2ncnc(Nc3ccc(F)c(Cl)c3)c2cc1OCCCN1CCOCC1 [gefitinib]
- response in the CReMS testing [1]: did not show a response

SMILES: CCc1c2c(nc3ccc(OC(=O)N4CCC(N5CCCCC5)CC4)cc13)-c1cc3c(c(=O)n1C2)COC(=O)[C@]3(O)CC [irinotecan, Irinotecan]
- responsiveness to the individual drug [2]: responsive

SMILES: CS(=O)(=O)CCNCc1ccc(-c2ccc3ncnc(Nc4ccc(OCc5cccc(F)c5)c(Cl)c4)c3c2)o1 [lapatinib, Lapatinib]
- patient responsiveness recorded by clinical reference standard ([3]; Patient B1): responsive
- patient responsiveness recorded by clinical reference standard ([3]; Patient B4): responsive
- CELx test prediction of patient response [4]: would respond
- CELx test prediction of patient response ([5]; Patient B1): will respond
- change (decrease) of cell index of test cells after drug ([5]; Patient B1 cells, pathway stimulated with receptor ligand (EGF), vs stimulated cells without drug): over 50%

SMILES: CC(=O)O[C@H]1C(=O)[C@@]2(C)[C@H]([C@H](OC(=O)c3ccccc3)[C@]3(O)C[C@H](OC(=O)[C@H](O)[C@@H](NC(=O)c4ccccc4)c4ccccc4)C(C)=C1C3(C)C)[C@]1(OC(C)=O)CO[C@@H]1C[C@@H]2O [paclitaxel, Paclitaxel]
- CELx test prediction of patient response ([6]; Patient B2): will respond
- time after which the CReM output reverses (test cells begin proliferating, no longer responsive) ([6]; Patient B2 cells): roughly 24 hours
- responsiveness of test cells (decrease in CReM output compared to control cells) ([6]; Patient B2 cells, continuous recording 48-72 hours): initial responsiveness
- CELx test prediction of patient response ([7]; Patient B1): will respond
- responsiveness of test cells (decrease in CReM output compared to control cells) ([7]; Patient B1 cells, continuous recording 48-72 hours): immediate and continuous responsiveness
